Laboratory results: ChEMBL document CHEMBL3272271, “Folate antagonists. 13. 2,4-Diamino-6-](alpha,alpha,alpha-trifluoro-m-tolyl)thio]quinazoline and related 2,4-diamino-6-[(phenyl- and naphthyl)thio]quinazolines, a unique class of antimetabolites with extraordinary antimalarial and antibacterial effects” (J Med Chem, 1978)
Values after ≈ are worked out from the molar mass of the structure shown. Active and inactive are the calls of the source. No cut-off for these calls is given here.

Tests used:
[1] = system: Plasmodium gallinaceum; test: Antimalarial activity against trophozoite-induced Plasmodium gallinaceum infected in white leghorn chicken assessed as disease cure from parasite infection at 320 mg/kg, sc administered 72 hrs after infection; assay type: functional, organism-based; parameters: dose 320 mg/kg
[2] = system: Plasmodium gallinaceum; test: Antimalarial activity against trophozoite-induced Plasmodium gallinaceum infected in white leghorn chicken assessed as disease cure from parasite infection at 160 mg/kg, sc administered 72 hrs after infection; assay type: functional, organism-based; parameters: dose 160 mg/kg
[3] = system: Plasmodium gallinaceum; test: Antimalarial activity against trophozoite-induced Plasmodium gallinaceum infected in white leghorn chicken assessed as disease cure from parasite infection at 80 mg/kg, sc administered 72 hrs after infection; assay type: functional, organism-based; parameters: dose 80 mg/kg
[4] = system: Enterococcus faecalis; test: Antibacterial activity against Streptococcus faecalis MGH-2 by gradient plate test; assay type: functional
[5] = system: Staphylococcus aureus; test: Antibacterial activity against Staphylococcus aureus UC-96 by gradient plate test; assay type: functional
[6] = system: Staphylococcus aureus; test: Antibacterial activity against drug-resistant Staphylococcus aureus S18713 by gradient plate test; assay type: functional
[7] = system: Pseudomonas aeruginosa; test: Antibacterial activity against Pseudomonas aeruginosa 28 by gradient plate test; assay type: functional
[8] = system: Escherichia coli; test: Antibacterial activity against Escherichia coli Vogel by gradient plate test; assay type: functional
[9] = system: Shigella sonnei; test: Antibacterial activity against Shigella sonnei C-10 by gradient plate test; assay type: functional
[10] = system: Plasmodium gallinaceum; test: Antimalarial activity against sporozoite-induced Plasmodium gallinaceum infected in white leghorn chicken assessed as disease cure from parasite infection at 320 mg/kg, sc administered 72 hrs after infection; assay type: functional, organism-based; parameters: dose 320 mg/kg
[11] = system: Plasmodium gallinaceum; test: Antimalarial activity against sporozoite-induced Plasmodium gallinaceum infected in white leghorn chicken assessed as disease cure from parasite infection at 160 mg/kg, sc administered 72 hrs after infection; assay type: functional, organism-based; parameters: dose 160 mg/kg
[12] = system: Plasmodium gallinaceum; test: Antimalarial activity against sporozoite-induced Plasmodium gallinaceum infected in white leghorn chicken assessed as disease cure from parasite infection at 80 mg/kg, sc administered 72 hrs after infection; assay type: functional, organism-based; parameters: dose 80 mg/kg
[13] = system: Plasmodium gallinaceum; test: Antimalarial activity against sporozoite-induced Plasmodium gallinaceum infected in white leghorn chicken assessed as disease cure from parasite infection at 40 mg/kg, sc administered 72 hrs after infection; assay type: functional, organism-based; parameters: dose 40 mg/kg
[14] = system: Plasmodium gallinaceum; test: Antimalarial activity against sporozoite-induced Plasmodium gallinaceum infected in white leghorn chicken assessed as disease cure from parasite infection at 20 mg/kg, sc administered 72 hrs after infection; assay type: functional, organism-based; parameters: dose 20 mg/kg
[15] = system: Plasmodium gallinaceum; test: Antimalarial activity against sporozoite-induced Plasmodium gallinaceum infected in white leghorn chicken assessed as increase in mean survival days of host at 10 mg/kg, sc administered 72 hrs after infection relative to control; assay type: functional; settings: route subcutaneous
[16] = system: Plasmodium gallinaceum; test: Antimalarial activity against sporozoite-induced Plasmodium gallinaceum infected in white leghorn chicken assessed as disease cure from parasite infection at 10 mg/kg, sc administered 72 hrs after infection; assay type: functional, organism-based; parameters: dose 10 mg/kg
[17] = system: Plasmodium berghei; test: Antimalarial activity against Plasmodium berghei infected in mouse assessed as increase in mean survival days of host at 40 mg/kg, sc administered 72 hrs after infection relative to control; assay type: functional; settings: route subcutaneous
[18] = system: Plasmodium berghei; test: Antimalarial activity against Plasmodium berghei infected in mouse assessed as increase in mean survival days of host at 20 mg/kg, sc administered 72 hrs after infection relative to control; assay type: functional; settings: route subcutaneous
[19] = system: Plasmodium berghei; test: Antimalarial activity against Plasmodium berghei infected in mouse assessed as increase in mean survival days of host at 10 mg/kg, sc administered 72 hrs after infection relative to control; assay type: functional; settings: route subcutaneous
[20] = system: Plasmodium berghei; test: Antimalarial activity against Plasmodium berghei infected in mouse assessed as increase in mean survival days of host at 5 mg/kg, sc administered 72 hrs after infection relative to control; assay type: functional; settings: route subcutaneous
[21] = system: Plasmodium berghei; test: Antimalarial activity against Plasmodium berghei infected in mouse assessed as increase in mean survival days of host at 2.5 mg/kg, sc administered 72 hrs after infection relative to control; assay type: functional; settings: route subcutaneous
[22] = system: Plasmodium berghei; test: Antimalarial activity against Plasmodium berghei infected in mouse assessed as increase in mean survival days of host at 1.25 mg/kg, sc administered 72 hrs after infection relative to control; assay type: functional; settings: route subcutaneous
[23] = system: Plasmodium berghei; test: Antimalarial activity against Plasmodium berghei infected in mouse assessed as disease cure from parasite infection at 640 mg/kg, sc administered 72 hrs after infection; assay type: functional, organism-based; parameters: dose 640 mg/kg
[24] = system: Plasmodium berghei; test: Antimalarial activity against Plasmodium berghei infected in mouse assessed as disease cure from parasite infection at 320 mg/kg, sc administered 72 hrs after infection; assay type: functional, organism-based; parameters: dose 320 mg/kg
[25] = system: Plasmodium berghei; test: Antimalarial activity against Plasmodium berghei infected in mouse assessed as disease cure from parasite infection at 160 mg/kg, sc administered 72 hrs after infection; assay type: functional, organism-based; parameters: dose 160 mg/kg
[26] = system: Plasmodium berghei; test: Antimalarial activity against Plasmodium berghei infected in mouse assessed as disease cure from parasite infection at 80 mg/kg, sc administered 72 hrs after infection; assay type: functional, organism-based; parameters: dose 80 mg/kg
[27] = system: Plasmodium berghei; test: Antimalarial activity against Plasmodium berghei infected in mouse assessed as disease cure from parasite infection at 40 mg/kg, sc administered 72 hrs after infection; assay type: functional, organism-based; parameters: dose 40 mg/kg
[28] = system: Plasmodium berghei; test: Antimalarial activity against Plasmodium berghei infected in mouse assessed as disease cure from parasite infection at 20 mg/kg, sc administered 72 hrs after infection; assay type: functional, organism-based; parameters: dose 20 mg/kg
[29] = system: Plasmodium berghei; test: Antimalarial activity against Plasmodium berghei infected in mouse assessed as disease cure from parasite infection at 10 mg/kg, sc administered 72 hrs after infection; assay type: functional, organism-based; parameters: dose 10 mg/kg
[30] = system: Plasmodium berghei; test: Antimalarial activity against trophozoite-induced Plasmodium berghei infected in mouse assessed as daily dose required to suppression of 90% parasite infection administered with diet for 6 days; assay type: functional
[31] = system: Plasmodium berghei; test: Ratio of quinine hydrochloride SD90 to compound SD90 for trophozoite-induced Plasmodium berghei infected in mouse assessed as daily dose required to suppression of 90% parasite infection administered with diet for 6 days; assay type: functional
[32] = system: Plasmodium gallinaceum; test: Antimalarial activity against trophozoite-induced Plasmodium gallinaceum infected in white leghorn chicken assessed as increase in mean survival days of host at 80 mg/kg, sc administered 72 hrs after infection relative to control; assay type: functional; settings: route subcutaneous
[33] = system: Plasmodium gallinaceum; test: Antimalarial activity against trophozoite-induced Plasmodium gallinaceum infected in white leghorn chicken assessed as increase in mean survival days of host at 40 mg/kg, sc administered 72 hrs after infection relative to control; assay type: functional; settings: route subcutaneous
[34] = system: Plasmodium gallinaceum; test: Antimalarial activity against trophozoite-induced Plasmodium gallinaceum infected in white leghorn chicken assessed as increase in mean survival days of host at 20 mg/kg, sc administered 72 hrs after infection relative to control; assay type: functional; settings: route subcutaneous
[35] = system: Plasmodium gallinaceum; test: Antimalarial activity against trophozoite-induced Plasmodium gallinaceum infected in white leghorn chicken assessed as increase in mean survival days of host at 10 mg/kg, sc administered 72 hrs after infection relative to control; assay type: functional; settings: route subcutaneous
[36] = system: Plasmodium gallinaceum; test: Antimalarial activity against trophozoite-induced Plasmodium gallinaceum infected in white leghorn chicken assessed as increase in mean survival days of host at 5 mg/kg, sc administered 72 hrs after infection relative to control; assay type: functional; settings: route subcutaneous
[37] = system: Plasmodium gallinaceum; test: Antimalarial activity against trophozoite-induced Plasmodium gallinaceum infected in white leghorn chicken assessed as increase in mean survival days of host at 2.5 mg/kg, sc administered 72 hrs after infection relative to control; assay type: functional; settings: route subcutaneous
[38] = system: Plasmodium gallinaceum; test: Antimalarial activity against trophozoite-induced Plasmodium gallinaceum infected in white leghorn chicken assessed as increase in mean survival days of host at 1.25 mg/kg, sc administered 72 hrs after infection relative to control; assay type: functional; settings: route subcutaneous
[39] = system: Plasmodium gallinaceum; test: Antimalarial activity against trophozoite-induced Plasmodium gallinaceum infected in white leghorn chicken assessed as increase in mean survival days of host at 0.63 mg/kg, sc administered 72 hrs after infection relative to control; assay type: functional; settings: route subcutaneous
[40] = system: Plasmodium falciparum; test: Antimalarial activity against chloroquine-susceptible, pyrimethamine-resistant Plasmodium falciparum Malayan Camp infected in Aotus trivirgatus owl monkey model assessed as cure from parasite infection at >2.5 mg/kg, po qd for 7 days relative to control; assay type: functional
[41] = system: Plasmodium falciparum; test: Antimalarial activity against pyrimethamine-sensitive Plasmodium falciparum Vietnam Oak Knoll infected in Aotus trivirgatus owl monkey model assessed as cure from parasite infection at 0.098 to 1.56 mg/kg, po qd for 7 days relative to control; assay type: functional; settings: dose mg/kg 0.098-1.56
[42] = system: Plasmodium falciparum; test: Antimalarial activity against pyrimethamine-sensitive Plasmodium falciparum Vietnam Oak Knoll infected in Aotus trivirgatus owl monkey model assessed as cure from parasite infection at 0.6 mg/kg, po qd for 7 days relative to control; assay type: functional
[43] = system: Plasmodium falciparum; test: Antimalarial activity against chloroquine-susceptible, pyrimethamine-resistant Plasmodium falciparum Malayan Camp infected in Aotus trivirgatus owl monkey model assessed as cure from parasite infection at 0.39 to 5 mg/kg, po qd for 7 days relative to control; assay type: functional; settings: dose mg/kg 0.39-5
[44] = system: Plasmodium gallinaceum; test: Antimalarial activity against trophozoite-induced Plasmodium gallinaceum infected in white leghorn chicken assessed as increase in mean survival days of host at 160 mg/kg, sc administered 72 hrs after infection relative to control; assay type: functional; settings: route subcutaneous

With `Cc1ccc(Cl)cc1Sc1ccc2nc(N)nc(N)c2c1` the Activity [1] was “Active”, the Activity [2] was “Active” and the Activity [3] was “Active”. The MIC [4] was < 0.25 µg/mL, the MIC [5] was < 0.25 µg/mL and the MIC [6] was < 0.25 µg/mL. The MIC [7] was > 25 µg/mL, the MIC [8] was < 0.25 µg/mL and the MIC [9] was 1.5 µg/mL (≈ 4.73 µM). For the same molecule, the Activity [10] was “Active”, the Activity [11] was “Active” and the Activity [12] was “Active”. For the same molecule, the Activity [13] was “Active”, the Activity [14] was “Active” and the MST [15] was 7 days. For the same molecule, the Activity [16] was “Active”, the MST [17] was 25.7 days and the MST [18] was 17.8 days. It also gave an MST [19] of 8.8 days, an MST [20] of 9.5 days and an MST [21] of 4.1 days. For the same molecule, the MST [22] was 2.7 days, the Activity [23] was “Active” and the Activity [24] was “Active”. The Activity [25] was “Active”, the Activity [26] was “Active” and the Activity [27] was “Active”. For the same molecule, the Activity [28] was “Active”, the Activity [29] was “Active” and the SD90 [30] was 0.43 mg/kg/day. It also gave a Ratio [31] of 170, an MST [32] of 18 days and an MST [33] of 7.8 days. For the same molecule, the MST [34] was 7.4 days, the MST [35] was 5.8 days and the MST [36] was 3.6 days. It also gave an MST [37] of 1.4 days, an MST [38] of 0 days and an MST [39] of 0 days.

In the case of `Nc1nc(N)c2cc(Sc3cccc(C(F)(F)F)c3)ccc2n1` [WR-159412], the Activity [40] is reported as >50%, the Activity [41] is reported as >50% and the Activity [42] is reported as >50%. For the same molecule, the Activity [10] was “Active”, the Activity [11] was “Active” and the Activity [12] was “Active”. The Activity [13] was “Active”, the Activity [14] was “Active” and the MST [15] was 7.3 days. The Activity [16] was “Active”, the MST [17] was 14.9 days and the MST [18] was 12.7 days. The MST [19] was 9.1 days, the Activity [43] was >50% and the MST [20] was 8.7 days. For the same molecule, the MST [21] was 2.7 days, the MST [22] was 0.5 days and the Activity [23] was “Active”. The Activity [24] was “Active”, the Activity [25] was “Active” and the Activity [26] was “Active”. The Activity [27] was “Active” and the MST [44] was 15.4 days.
